Measured values taken from patent EP0429304A2, “Pyridone-carboxylic acid derivatives and their use as veterinary medicines” (SHIONOGI SEIYAKU KABUSHIKI KAISHA trading under the name of …, priority 1989, dated 1991).
Like-named read-outs stand apart in the source and are kept apart here.

Key:
[1] = system: Streptococcus sp (Str.sp) SNO6119; test: In vitro sensitivity test; format: cell-based; settings: 25°C, 40 to 48 hours
Procedure: (§1) Survey of the sensitivity of the compound (I) to various strains of microorganisms was performed by a liquid dilution method […] an agar dilution method, in which the bacteria used were of animal origin and included the following strains (15 strains out of 11 bacteria): Chicken-origin strain: Mycoplasma gallisepticum (MG), Mycoplasma synoviae (MS), Hemophilus paragallinarum (H.pg) and Escherichia coli (E.coli); Pig-origin strain: Mycoplasma hyopneumoniae (Mh), Hemophilus pleuropneumonia (H.pp) and Bordetella bronchiseptica (B.br); Fish-origin strain: Pasteurella piscicida (P.pis) and Streptococcus sp (Str.sp); others: Escherichia coli (E. coli), Salmonella typhimurium (S.typhi) and Staphylococcus aureus (S.au).
(§2) Of these bacteria, the strains belonging to MG, MS and Mh were cultured at 37°C for 7 days by a liquid dilution method, of which the culture medium comprised: 12 % horse-serum added "PPLO" (agar manufactured by Difco) medium for MG; 12 % pig-serum, 0.01 % βNAD (nicotinamide adenine dinucleotide) added Frey medium for MS; 0.5 % lactoalbumin added Hank's solution, 10 % horse-serum, 0.5 % yeast extract (25 %) for Mh, and the agar dilution method was applied to the strains belonging to H.pg, H.pp, S.typhi, E.coli, S.au and B.br. Specifically, the H.pg strain was cultured in a 5 % chicken-serum added chicken bouillon medium and the H.pp strain was cultured in a heart infusion agar added with 10 % sheep defibered blood and 0.05 % βNAD. In case of the H.pg and P.pp strains, observation was made after cultivation at 37°C for 20 hours under 10 % CO₂. Mueller Hinton agar (Difco) was used for the strains belonging to S.typhi, E.coli, S.au and B.br, and observation was made after cultivation at 37°C for 20 to 24 hours. P.pis and Str.sp, both being of fish-origin, were respectively cultured at 25°C for 40 to 48 hours in a 1.5 % NaCl added heart infusion agar and in a sensitive disk medium.

[2] = system: Pasteurella piscicida (P.pis) No. 2; test: In vitro sensitivity test; format: cell-based; settings: 25°C, 40 to 48 hours
Procedure: as §1, §2

[3] = system: TS-resistant strain of MG; format: in vivo, chicken; settings: for Infectious index Left air sack + / Infectious index Left air sack ++ / Infectious index Left air sack +++ / Infectious index Left air sack - / Infectious index Right air sack + / Infectious index Right air sack ++ / Infectious index Right air sack +++ / Infectious index Right air sack -: count of fowl; for Infectious index Left air sack + / Infectious index Left air sack ++ / Infectious index Left air sack +++ / Infectious index Left air sack - / Infectious index Right air sack + / Infectious index Right air sack ++ / Infectious index Right air sack +++ / Infectious index Right air sack - / Number of fowl having air sack lesions: 10-days chicken, 3.0 x 10³ CFU/fowl; for Number of infected fowl/Number of fowl tested: 9-days chicken, 3.5 x 10³ CFU/fowl
[4] = system: Mycoplasma hyopneumoniae (Mh) ST-11; test: In vitro sensitivity test (liquid dilution method); format: cell-based; settings: 37°C, 7 days
Procedure: as §1, §2

[5] = system: Mycoplasma gallisepticum (MG) T-7-T, TS-resistant strain isolated from the field; test: In vitro sensitivity test (liquid dilution method); format: cell-based; settings: 37°C, 7 days
Procedure: as §1, §2

[6] = system: Mycoplasma gallisepticum (MG) S6; test: In vitro sensitivity test (liquid dilution method); format: cell-based; settings: 37°C, 7 days
Procedure: as §1, §2

[7] = system: Escherichia coli (E.coli) JC-2; test: In vitro sensitivity test (agar dilution method); format: cell-based; settings: 37°C, 20 to 24 hours
Procedure: as §1, §2

[8] = system: Hemophilus paragallinarum (H.pg) 221; test: In vitro sensitivity test (agar dilution method); format: cell-based
Procedure: as §1, §2

[9] = system: Staphylococcus aureus (S.au) 209P; test: In vitro sensitivity test (agar dilution method); format: cell-based; settings: 37°C, 20 to 24 hours
Procedure: as §1, §2

[10] = system: Hemophilus pleuropneumonia (H.pp) M-1; test: In vitro sensitivity test (agar dilution method); format: cell-based; settings: 37°C, 20 hours, 10 % CO₂
Procedure: as §1, §2

[11] = system: Escherichia coli (E.coli) E-17, chicken-origin strain isolated from the field; test: In vitro sensitivity test (agar dilution method); format: cell-based; settings: 37°C, 20 to 24 hours
Procedure: as §1, §2

[12] = system: Hemophilus paragallinarum (H.pg) S-1; test: In vitro sensitivity test (agar dilution method); format: cell-based
Procedure: as §1, §2

[13] = system: Salmonella typhimurium (S.typhi) 13311; test: In vitro sensitivity test (agar dilution method); format: cell-based; settings: 37°C, 20 to 24 hours
Procedure: as §1, §2

[14] = system: Bordetella bronchiseptica (B.br) ABU-1; test: In vitro sensitivity test (agar dilution method); format: cell-based; settings: 37°C, 20 to 24 hours
Procedure: as §1, §2

TS-resistant MG = test: Experimental MG infection to chicken, through bait; format: in vivo; settings: 9-days chicken, 6.6 x 10³ CFU/fowl, dissection 6th day after inoculation
[15] = system: H.pp (otherwise called Actinobacillus pleuropneumoniae) strain M-1; test: Experimental H.pp infection to pig, through injection; format: in vivo; settings: injection to thigh muscle one time, Dose 5 mg/kg; dissection 6 days after inoculation
Procedure: In these experiments, the compound (I) was applied to the designated animals by (1) oral administration, (2) incorporation into baits and (3) intramuscular injection, the details of which are explained below.
(3) Preparation of the MG infected fowls was performed in the same manner as in (1) above. Infection of H.pp (otherwise called Actinobacillus pleuropneumoniae) to cause pleuropneumonia in pig was performed by inoculating 5 ml of a fresh cultured strain (i.e. M-1) of H.pp to each nasopharyngeal of some 45 days pigs, each weighing 4 to 9 kg (4 to 5 pigs/group), followed by injection of the test compounds to each thigh muscle at a designated volume one time. Pigs were dissected 6 days after the inoculation. The evaluation of the antimicrobial activity was made by observation of the pneumonia symptomes in air sacs, number of dead body and degree of nodosity in air sacks on dissection.

[16] = agar dilution, 37°C, 20 hours, 10 % CO₂

Row | Structure (SMILES) | In vitro Sensitivity Test Str.sp SNO6119 [1] [µg/mL] | In vitro Sensitivity Test P.pis No. 2 [2] [µg/mL] | Infectious index Left air sack + ([3]; oral 3.13 mg/kg) | Infectious index Left air sack ++ ([3]; oral 3.13 mg/kg) | Infectious index Left air sack +++ ([3]; oral 3.13 mg/kg) | Infectious index Left air sack - ([3]; oral 3.13 mg/kg) | Infectious index Right air sack + ([3]; oral 3.13 mg/kg) | Infectious index Right air sack ++ ([3]; oral 3.13 mg/kg) | Infectious index Right air sack +++ ([3]; oral 3.13 mg/kg) | Infectious index Right air sack - ([3]; oral 3.13 mg/kg) | Infectious index Left air sack + ([3]; oral 6.25 mg/kg) | Infectious index Left air sack ++ ([3]; oral 6.25 mg/kg) | Infectious index Left air sack +++ ([3]; oral 6.25 mg/kg) | Infectious index Left air sack - ([3]; oral 6.25 mg/kg) | In vitro Sensitivity Test Mh ST-11 [4] [µg/mL] | In vitro Sensitivity Test MG S6 [6] [µg/mL] | In vitro Sensitivity Test E.coli JC-2 [7] [µg/mL] | In vitro Sensitivity Test S.au 209P [9] [µg/mL] | In vitro Sensitivity Test H.pp M-1 [10] [µg/mL] | In vitro Sensitivity Test S.typhi 13311 [13] [µg/mL] | further results
1 | CN[C@H]1CCC[C@H]2CN(c3c(F)cc4c(=O)c(C(=O)O)cn(C5CC5)c4c3F)CC[C@H]21.Cl (relative stereo) [I-7, 1-cyclopropyl-6,8-difluoro-7-[(1R*,6R*,7S*)-7-methylamino-3-azabicyclo[4.4.0]decan-3-yl]-1,4-dihydro-4-oxo-3-quinolinecarboxylic acid hydrochloride] | 3.13 | 6.25 | 0 | 0 | 0 | 5 | 0 | 3 | 1 | 1 | 1 | 0 | 0 | 5 | 0.1 | 0.05 | 0.39 | 0.78 | 0.78 | 0.2 | Infectious index Right air sack + ([3]; oral 6.25 mg/kg): 1; Infectious index Right air sack ++ ([3]; oral 6.25 mg/kg): 3; Infectious index Right air sack +++ ([3]; oral 6.25 mg/kg): 1; Infectious index Right air sack - ([3]; oral 6.25 mg/kg): 0; Infectious index Left air sack + ([3]; oral 12.5 mg/kg): 0; Infectious index Left air sack ++ ([3]; oral 12.5 mg/kg): 0; Infectious index Left air sack +++ ([3]; oral 12.5 mg/kg): 0; Infectious index Left air sack - ([3]; oral 12.5 mg/kg): 5; Infectious index Right air sack + ([3]; oral 12.5 mg/kg): 2; Infectious index Right air sack ++ ([3]; oral 12.5 mg/kg): 1; Infectious index Right air sack +++ ([3]; oral 12.5 mg/kg): 2; Infectious index Right air sack - ([3]; oral 12.5 mg/kg): 0; Number of fowl having air sack lesions ([3]; oral 3.13 mg/kg): 4; Number of fowl having air sack lesions ([3]; oral 6.25 mg/kg): 5; Number of fowl having air sack lesions ([3]; oral 12.5 mg/kg): 5; In vitro Sensitivity Test MG T-7-T [5]: 0.2 µg/mL; In vitro Sensitivity Test H.pg 221 [8, 16]: >3.13 µg/mL; In vitro Sensitivity Test E.coli E-17 [11]: 0.39 µg/ml; In vitro Sensitivity Test H.pg S-1 [12, 16]: >3.13 µg/mL; In vitro Sensitivity Test B.br ABU-1 [14]: 6.25 µg/mL
2 | CCNCC12CCCC1CN(c1c(F)cc3c(=O)c(C(=O)O)cn(CC)c3c1F)C2.Cl (centres unmarked) [I-23] | 0.39 | 0.78 |  |  |  |  |  |  |  |  |  |  |  |  | 0.78 | 0.0125 | 0.78 | 0.1 | 0.78 | 1.56 | Number of infected fowl/Number of fowl tested (TS-resistant MG; bait 31.3 ppm/Day): 5/7; Number of infected fowl/Number of fowl tested (TS-resistant MG; bait 62.5 ppm/Day): 0/7; Number of infected fowl/Number of fowl tested (TS-resistant MG; bait 125 ppm/Day): 0/7; Number of pig having nodi/Number of pig tested [15]: 2/4; Number of infected fowl/Number of fowl tested ([3]; oral 1.56 mg/kg): 5/5; Number of infected fowl/Number of fowl tested ([3]; oral 3.13 mg/kg): 5/5; Number of infected fowl/Number of fowl tested ([3]; oral 6.25 mg/kg): 0/5
3 | CN[C@@H]1CCC[C@H]2[C@@H]1CCN2c1c(F)cc2c(=O)c(C(=O)O)cn(C3CC3)c2c1F (relative stereo) [I-3] | 0.78 | 1.56 | 0 | 1 | 0 | 4 | 0 | 3 | 0 | 2 | 0 | 0 | 0 | 5 | 0.05 | 0.025 | 0.1 | 0.2 | 0.2 | 0.1 | Infectious index Right air sack + ([3]; oral 6.25 mg/kg): 2; Infectious index Right air sack ++ ([3]; oral 6.25 mg/kg): 3; Infectious index Right air sack +++ ([3]; oral 6.25 mg/kg): 0; Infectious index Right air sack - ([3]; oral 6.25 mg/kg): 0; Infectious index Left air sack + ([3]; oral 12.5 mg/kg): 1; Infectious index Left air sack ++ ([3]; oral 12.5 mg/kg): 0; Infectious index Left air sack +++ ([3]; oral 12.5 mg/kg): 0; Infectious index Left air sack - ([3]; oral 12.5 mg/kg): 4; Infectious index Right air sack + ([3]; oral 12.5 mg/kg): 2; Infectious index Right air sack ++ ([3]; oral 12.5 mg/kg): 1; Infectious index Right air sack +++ ([3]; oral 12.5 mg/kg): 0; Infectious index Right air sack - ([3]; oral 12.5 mg/kg): 2; Number of fowl having air sack lesions ([3]; oral 3.13 mg/kg): 3; Number of fowl having air sack lesions ([3]; oral 6.25 mg/kg): 5; Number of fowl having air sack lesions ([3]; oral 12.5 mg/kg): 3; In vitro Sensitivity Test MG T-7-T [5]: 0.05 µg/mL; In vitro Sensitivity Test H.pg 221 [8]: 1.56 µg/mL; In vitro Sensitivity Test E.coli E-17 [11]: 0.1 µg/ml; In vitro Sensitivity Test H.pg S-1 [12]: 1.56 µg/mL; In vitro Sensitivity Test B.br ABU-1 [14]: 6.25 µg/mL
